Patent publication US20220054643A1, “SAPONIN CONJUGATED TO EPITOPE-BINDING PROTEINS” (priority 2018, published 2022)

Key:
[1] = tested on: SK-BR-3, JIMT-1, MDA-MB-468, A431, CaSki, HeLa, A2058; test: control treatments, relative cell viability on various cancer cell lines; assay type: cell-based, human; settings: wide range of concentrations, up to 100.000 pM
Experimental: (§1) After treatment the cells were incubated for 72 hr at 37° C. before the cell viability was determined by a MTS-assay, performed according to the manufacturer's instruction (CellTiter 96® AQueous One Solution Cell Proliferation Assay, Promega). Briefly, the MTS solution was diluted 20× in DMEM without phenol red (PAN-Biotech GmbH) supplemented with 10% FBS (PAN-Biotech GmbH). The cells were washed once with 200 μL PBS per well, after which 100 μL diluted MTS solution was added per well.
(§2) The plate was incubated for approximately 20-30 minutes at 37° C. Subsequently, the optical density at 492 nm was measured on a Thermo Scientific Multiskan FC plate reader (Thermo Scientific). For quantification the background signal of ‘medium only’ wells was subtracted from all other wells, before the ratio of untreated/treated cells was calculated, by dividing the background corrected signal of untreated wells over the background corrected signal of the treated wells.

HER14 cells = test: viability assay (MTT) with HER14 cells; assay type: cell-based; settings: 0.1 nM dianthin-EGF in the presence of SA1641
Experimental: To test the efficacy of the invention, we conducted a viability assay with HER14 cells. These cells are fibroblasts stably transfected with the human epidermal growth factor receptor and therefore target cells for the targeted toxin dianthin-EGF. HER14 cells (2,000 cells/100 μL/well) were seeded into wells of 96-well-cell culture plates and incubated for 24 h in DMEM medium supplemented with 10% fetal calf serum and 1% penicillin/streptomycin at 37° C., 5% CO2 and 98% humidity. The different test substances (see results and FIG. 59) were then added in triplicates in a volume of 25 μL and supplemented with further 25 μL of medium. After an incubation of 72 h, 30 μL 3-(4,5-dimethylthiazol-2-yl)-2,5-diphenyltetrazolium bromide (0.5 mg/mL in water) was added per well and incubated for 2 h. Thereafter, the medium was carefully removed and replaced by an aqueous solution containing 10% (v/v) isopropanol, 5% (w/v) sodium dodecyl sulfate and 400 mM HCl, and incubated for 5 min. Solubilized formazan was photometrically quantitated at […] in a microplate reader (Spectra MAX 340 PC, Molecular Devices, Sunnyvale, Calif., USA). Untreated cells were normalized to 1 and all samples referred to the untreated control. Significance was determined by unpaired two-sample t-tests.

A431 cells = assay type: cell-based, human; settings: without EGFdianthin
Experimental: as §1, §2

A2058 cells = test: cell viability assay (MTS); assay type: cell-based, human; settings: without EGFdianthin
Experimental: as §1, §2

HeLa cells = test: cell viability assay (MTS); assay type: cell-based, human; settings: for concentration above which toxicity is seen as single compound: without EGFdianthin
Experimental: as §1, §2

[2] = pH dependent hydrolysis of the hydrazone bond (MALDI-TOF-MS); assay type: physicochemical; settings: HCl solution at pH 3; MALDI-TOF-MS at two points in time

| Compound | concentration above which toxicity is seen as single compound (A431 cells) | concentration above which toxicity is seen as single compound (A2058 cells) | concentration above which toxicity is seen as single compound (HeLa cells) | also measured |
| --- | --- | --- | --- | --- |
| saporin | – | – | – | influence on relative cell viability [1]: do not or hardly have any influence on cell viability |
| C[C@@H]1O[C@@H](O[C@H]2[C@H](OC(=O)[C@]34CCC(C)(C)C[C@H]3C3=CC[C@@H]5[C@@]6(C)CC[C@H](O[C@H]7O[C@H](C(=O)O)[C@@H](O)[C@H](O[C@@H]8OC[C@@H](O)[C@H](O)[C@H]8O)[C@H]7O[C@@H]7O[C@H](CO)[C@H](O)[C@H](O)[C@H]7O)[C@@](C)(C=O)[C@@H]6CC[C@@]5(C)[C@]3(C)CC4)O[C@H](C)[C@H](O[C@@H]3O[C@H](C)[C@@H](O)[C@H](O)[C@H]3O)[C@@H]2O)[C@H](O)[C@H](O)[C@H]1O[C@@H]1OC[C@@H](O)[C@H](O[C@@H]2OC[C@@H](O)[C@H](O)[C@H]2O)[C@H]1O [SA1641] | – | – | – | cell viability (HER14 cells): death of all cells |
| CC(=O)OC1C(C)OC(OC2C(C)OC(OC(=O)[C@]34CCC(C)(C)CC3C3=CCC5[C@@]6(C)CC[C@H](OC7OC(C(=O)O)C(O)C(OC8OCC(O)C(O)C8O)C7OC7OC(CO)C(O)C(O)C7O)[C@@](C)(C=O)C6CC[C@@]5(C)[C@]3(C)C[C@H]4O)C(OC3OC(C)C(OC4OCC(O)C(OC5OC(CO)C(O)C(O)C5O)C4O)C(O)C3O)C2O)C(O)C1OC1OCC(O)C(O)C1O (stereo partly shown) [SO1861] | strong cell viability reduction | strong cell viability reduction | strong cell viability reduction | – |
| CCN(CC)CCCC(C)Nc1ccnc2cc(Cl)ccc12 (stereo not shown) [chloroquine, reference compound] | – | – | – | effect on SO1861-mediated endosomal escape of dianthin-EGF and cell killing (HeLa cells; SO1861 + dianthin-EGF + 500 nM chloroquine / 500 nM PAMAM (native, thiolated, PEGylated) / 667 nM dendron): inhibit the SO1861-mediated endosomal escape |
| CC(=O)OC1C(C)OC(OC2C(C)OC(OC(=O)[C@]34CCC(C)(C)CC3C3=CCC5[C@@]6(C)CC[C@H](OC7OC(C(=O)O)C(O)C(OC8OCC(O)C(O)C8O)C7OC7OC(CO)C(O)C(O)C7O)[C@@](C)(/C=N/NC(=O)CCCCCN7C(=O)C=CC7=O)C6CC[C@@]5(C)[C@]3(C)C[C@H]4O)C(OC3OC(C)C(OC4OCC(O)C(OC5OC(CO)C(O)C(O)C5O)C4O)C(O)C3O)C2O)C(O)C1OC1OCC(O)C(O)C1O (stereo partly shown) [SO1861-EMCH] | > 25.000 nM | > 25.000 nM | > 25.000 nM | hydrolysis of the hydrazone bond [2]: gets cleaved |
